From patent publication US12343355B2, “Methods for decreasing the incidence of necrotizing enterocolitis in infants, toddlers, or children using human milk oligosaccharides” (ABBOTT LABORATORIES, priority 2010, dated 2025)

What was measured:
Caco-2 cells [1] = experiment: Alkaline phosphatase activity in Caco-2 cells (cell differentiation); settings: 72 hours, LNnT or 2′FL 20-2000 mg/L, 6′SL 40-4000 mg/mL
[2] = system: diluted feces of infants (fecal inoculum); experiment: In vitro fermentation model simulating large bowel fermentation, infant fecal inoculum (pH, SCFA, fermentation rate); assay type: cell-based; settings: for pH change from baseline: at 3, 6, and 12 h after inoculation, compared among substrates
Caco-2 cells [3] = experiment: Sucrase activity in Caco-2 cells; assay type: cell-based, human; settings: 72 hours, various levels
B. infantis M-63 = experiment: Bacterial growth assay (OD600); assay type: cell-based, Bifidobacterium infantis; settings: carbohydrate 1% in sMRS+cysteine
Description: (§1) Subsequently, the cultures are passed twice on a semi-synthetic MRS medium ([…] which is supplemented with 1% (w/v) filter-sterilized glucose as the sole carbohydrate source. […] [table] After the 2nd pass in sMRS+glucose+cysteine, the cultures are washed once with 10 mL of sterile sMRS+cysteine (no carbohydrate), resuspended in 10 ml of sterile sMRS+ cysteine (no carbohydrate) and then used as a 1% inoculum. […] Cell growth is performed in 250 uL of sMRS+cysteine covered with 50 uL of mineral oil in a Bioscreen 100-well Honeycomb plate. Cell growth is monitored by measuring optical density at 600 nm (OD600) using a Bioscreen C Automated Microbiology Growth Curve Analysis System. The plate reader is operated in discontinuous mode, with absorbance readings performed in 30-minute intervals, and preceded by 30-second shaking intervals at maximum speed. Controls consist of inoculated medium lacking carbohydrate. […] All three plates include a positive control (glucose) and negative control (no carbohydrate). The OD600 data for each carbohydrate is corrected by subtracting the OD600 of the basal media (sMRS)+cysteine from the sample plate for each probiotic. Maximum OD is determined by inspection of the corrected growth data. OD is determined by subtracting the initial corrected OD (time point 0) from the maximum corrected OD. Samples are grown in biologically independent triplicates and the resulting growth kinetic data are expressed as the mean of these replicates. For the growth curve plots, OD600 vs. time is first plotted for the bacteria grown on medium lacking carbohydrate (sMRS). For all other carbohydrates, the OD600 data is corrected by subtracting the OD600 of sMRS.

B. infantis ATCC 15697 = experiment: Bacterial growth assay (OD600); assay type: cell-based, Bifidobacterium infantis; settings: carbohydrate 1% in sMRS+cysteine
Description: as §1

HT-29 cells = experiment: Alkaline phosphatase activity in HT-29 cells (cell differentiation); settings: 72 hours
enteric nerve cells = experiment: Peristalsis model using luminally perfused mouse colon
Description: In this Example, the effect of 2′-fucosyllactose (2′FL) or 3′-fucosyllactose (3′FL) on stimulating enteric nerve cells in the gastrointestinal tract of rodents is analyzed.
Specifically, a peristalsis model using luminally perfused mouse colon is used to test the stimulation effect of 2′FL or 3′FL on enteric nerve cells. Colon muscle is perfused with 2′FL or 3′FL, at concentrations of 1 mg/mL, 0.5 mg/mL, and 0.1 mg/mL, for 15 minutes. The frequency and amplitude of contractions of the muscle is analyzed.

[4] = system: Bifidobacterium spp. (12 strains); experiment: Bacterial growth assay (OD600), all bifidobacteria strains tested; assay type: cell-based; settings: carbohydrate 1% in sMRS+cysteine
Description: as §1

B. breve ATCC 15700 = experiment: Bacterial growth assay (OD600); assay type: cell-based, Bifidobacterium breve; settings: carbohydrate 1% in sMRS+cysteine
Description: as §1, with “The OD600 data for each carbohydrate is corrected by subtracting the OD600 of the basal media (sMRS)+cysteine from the sample plate for each probiotic.” left out, “For the growth curve plots, OD600 vs. time is first plotted for the bacteria grown on medium lacking carbohydrate (sMRS). For all other carbohydrates, the OD600 data is corrected by subtracting the OD600 of sMRS.” left out

Caco-2 cells [5] = experiment: Transepithelial resistance of Caco-2 cells (Ussing chambers); assay type: cell-based, human; settings: more mature Caco-2 cells
From the text: FIGS. 20-22 illustrate the effect of LNnT, 2′FL, and 6′SL on cell resistance (transepithelial resistance), which is a marker for epithelial barrier function, wherein a higher resistance is associated with a higher barrier function. Epithelial cell resistance or barrier function is a measure of differentiated epithelial cell function. Specifically, as the cells mature, tighter junctions between the cells are formed resulting in a stronger epithelial cell barrier. This barrier prevents the movement of large molecules, bacteria, or viruses from one side of the barrier to the other, which could improve resistance to infection, sepsis, and NEC. […] Transepithelial resistance was measured using Transwell Snapwell inserts containing the desired cell culture and were transferred to modified Ussing chambers and bathed in modified Kreb's solution at 37 C with 95% oxygen and 5% carbon dioxide. Transepithelial resistance was measured as the passive transport of ions across the monolayers.

[6] = colon muscle perfused at 1, 0.5 and 0.1 mg/mL for 15 minutes
[7] = LNnT 20-2000 mg/L, 6′SL 40-4000 mg/mL

C[C@@H]1O[C@@H](O[C@H]2[C@H](O[C@H]3[C@H](O)[C@@H](O)C(O)O[C@@H]3CO)O[C@H](CO)[C@H](O)[C@@H]2O)[C@@H](O)[C@H](O)[C@@H]1O (stereo partly drawn) [2′FL, 2′-a-L-Fucopyranosyl-D-Lactose]
alkaline phosphatase activity (Caco-2 cells [1]): trend toward increased alkaline phosphatase activity
fermentation rate [2]: about 4,872 i·tg/g of dry matter/hour
pH change from baseline [2]: greatest
sucrase activity per milligram of protein (Caco-2 cells [3]): trend toward sucrase activity
growth / ability to ferment (OD600) (B. infantis M-63): able to ferment
growth / ability to ferment (OD600) (B. infantis ATCC 15697): able to ferment
alkaline phosphatase activity per milligram of protein (HT-29 cells; at the high dose (2000 mg/L)): significant increase in alkaline phosphatase activity
amplitude of contraction (enteric nerve cells; [6]): reduced consistently and in a dose response fashion
frequency of contraction (enteric nerve cells; [6]): reduced consistently and in a dose response fashion
stimulation of nerve cells (enteric nerve cells; without involving gut microbiota and/or their metabolites): direct stimulation of nerve cells
growth / ability to ferment (OD600) [4]: Only B. infantis ATCC 15697 and B. infantis M-63 are able to ferment

CC(=O)N[C@H]1C([C@H](O)[C@H](O)CO)O[C@@](OCC2O[C@@H](O[C@@H]3C(CO)OC(O)C(O)[C@H]3O)C(O)[C@@H](O)[C@H]2O)(C(=O)[O-])C[C@H]1O.[Na+] (some centres unmarked) [6′SL, a-(2-6′)-N-Acetylneuraminyl-lactose sodium salt]
alkaline phosphatase activity (Caco-2 cells [1]): no apparent effect
fermentation rate [2]: about 1,809 i·tg/g of dry matter/hour
total SCFA production ([2]; 12 h of fermentation): greater (P<0.05) for the 6′SL and GOS substrates compared to 2′FL
total SCFA production ([2]; after 3 and 6 h of fermentation): lower (P<0.05) with 6′SL compared to GOS
sucrase activity per milligram of protein (Caco-2 cells [3]): no apparent effect
growth / ability to ferment (OD600) (B. infantis M-63): able to ferment
growth / ability to ferment (OD600) (B. infantis ATCC 15697): able to ferment
alkaline phosphatase activity per milligram of protein (HT-29 cells; [7]): no apparent effect
growth / ability to ferment (OD600) [4]: Only B. infantis ATCC 15697 and B. infantis M-63 are able to ferment

CC(=O)N[C@H]1[C@H]([C@H](O)[C@H](O)CO)OC(O)(C(=O)O)C[C@@H]1O (some centres unmarked) [sialic acid, N-acetylneuraminic acid, reference compound]
growth / ability to ferment (OD600) (B. infantis M-63): not able to ferment
growth / ability to ferment (OD600) (B. infantis ATCC 15697): not able to ferment
growth / ability to ferment (OD600) [4]: None of the bifidobacteria are able to ferment

CC(=O)N[C@H]1[C@H](O[C@H]2[C@@H](O)[C@@H](CO)O[C@@H](O[C@H]3[C@H](O)[C@@H](O)C(O)O[C@@H]3CO)[C@@H]2O)O[C@H](CO)[C@@H](O[C@@H]2O[C@H](CO)[C@H](O)[C@H](O)[C@H]2O)[C@@H]1O (mixture of isomers) [LNnT, Lacto-N-neotetraose]
growth / ability to ferment (OD600) (B. breve ATCC 15700): grow well
alkaline phosphatase activity (Caco-2 cells [1]): trend toward an increase
fermentation rate [2]: about 4,488 i·tg/g of dry matter/hour
pH change from baseline [2]: greatest
sucrase activity per milligram of protein (Caco-2 cells [3]): no apparent effect
growth / ability to ferment (OD600) (B. infantis M-63): grow well
growth / ability to ferment (OD600) (B. infantis ATCC 15697): grow well
alkaline phosphatase activity per milligram of protein (HT-29 cells; [7]): trend toward an increase
cell resistance (transepithelial resistance) (Caco-2 cells [5]): positive effect on cell resistance

CC(=O)N[C@H]1[C@H]([C@H](O)[C@H](O)CO)O[C@@](O[C@H]2[C@@H](O)[C@@H](CO)O[C@@H](O[C@H]3[C@H](O)[C@@H](O)C(O)O[C@@H]3CO)[C@@H]2O)(C(=O)O)C[C@@H]1O (some centres unmarked) [3′SL, 3′-sialyllactose]
growth / ability to ferment (OD600) (B. infantis M-63): able to ferment
growth / ability to ferment (OD600) (B. infantis ATCC 15697): able to ferment
growth / ability to ferment (OD600) [4]: Only B. infantis ATCC 15697 and B. infantis M-63 are able to ferment

O=C(CO)[C@@H](O)[C@H](O)[C@H](O)CO [fructose, D-Fructose]
growth / ability to ferment (OD600) [4]: majority of bifidobacteria is able to ferment

C[C@H](O)[C@@H](O)[C@@H](O)[C@H](O)C=O [L-fucose, L-(−) Fucose, reference compound]
growth / ability to ferment (OD600) (B. infantis M-63): not able to ferment
growth / ability to ferment (OD600) (B. infantis ATCC 15697): not able to ferment
growth / ability to ferment (OD600) [4]: None of the bifidobacteria are able to ferment

CC(=O)N[C@H]1C(O)O[C@H](CO)[C@@H](O)[C@@H]1O (stereo partly drawn) [NAG, N-acetyl-D-glucosamine, reference compound]
growth / ability to ferment (OD600) (B. breve ATCC 15700): able to ferment
growth / ability to ferment (OD600) [4]: Only B. breve ATCC 15700 is able to ferment
